Assay [1] relates to PBMC from healthy human donors. In words: T cell proliferation assay (PHA-stimulated human PBMC, BrdU ELISA). In kind it is cell-based. The note with it: 48 hours. The procedure:
Cell proliferation was analysed using the BrdU based cell proliferation ELISA from Roche (Mannheim, Germany) according to the manufacturer's instructions. T Cell Proliferation Assay Peripheral blood mononuclear cells (PBMC) from healthy human donors were isolated by centrifugation over Ficoll-Hypaque (Sigma-Aldrich, Germany) according to manufacturer's instructions. Purified PBMC were washed twice with PBS and resuspended in RPMI1640 culture medium supplemented with 10% dialyzed heat inactivated fetal calf serum, 1.5 mM L-glutamine, 100 U penicillin/ml, and […] (all from PAN Biotech, Aidenbach, Germany). For stimulation, PBMC were seeded at 1×10^5 cells/well, activated with 2 μg/ml phytohaemagglutinin (PHA, Sigma) and incubated with the test compound. After 48 hours proliferation was measured using the BrdU based cell proliferation ELISA from Roche (Mannheim, Germany) according to the manual.

The subject of a further assay is IFN-γ. Kind of assay: IFN-γ production by PHA-stimulated human PBMC (OptEIA human IFN-g ELISA). The note with it: 48 hours. It is filed as cell-based. The protocol:
Analysis of Proliferation of and Cytokine Production by Human PBMC Stimulated with PHA
Peripheral blood mononuclear cells (PBMC) from healthy human donors were purified using Accuspin™ System-Histopaque-1077 (Sigma) according to the protocol recommended by the manufacturer. Purified PBMC were then washed twice with phosphate-buffered saline (PBS) and resuspended in RPMI1640 culture medium supplemented with 10% dialyzed heat inactivated fetal calf serum, 1.5 mM L-glutamine, 100 U penicillin/ml, and […] (all from PAN Biotech, Aidenbach, Germany). For stimulation, PBMC were seeded at 1×10^5 cells/well, activated with 2 μg/ml phytohaemagglutinin (PHA, Sigma) and incubated with the test compounds for 48 hours. IL-17A, IL-17F and INF-γ were then determined in the culture supernatant using a Luminex BioPlex system, following the manufacturer's instructions (BioRad, Munich, Germany). For screening, compounds were used at 10, 1, 0.1 and 0.01 μM. To determine the IC50, compounds were titrated semilogarithmically.
Cytokines were determined in the aforementioned culture supernatant using the following methods: IL-17AA/AF was measured using the Luminex BioPlex system (BioRad, Munich, Germany); IL-17AA using the human homodimer IL-17A ELISA Ready Set Go Kit from eBioscience (Frankfurt, Germany); IL-17FF using the human IL-17F ELI-Pair from Hölzel DiagnosticaGmBH (Köln, Germany); and IFN-γ using the OptEIA human IFN-g ELISA from BD Bioscience (Heidelberg, Germany), all following the manufacturer's instructions.
Background: In an ELISA, binding on a coated surface is turned into a signal by an enzyme label.

Where [2] appears, read: PHA-stimulated human PBMC, column D, read-out: IC50 (Tcell proliferation).
[3] abbreviates: PHA-stimulated human PBMC, column C, read-out: IC50 (IFNγ).

The structures appear in SMILES notation. Where two headings read alike, the source gives them in different places.

Regarding `CCOc1cc(-n2ncc(-c3onc(-c4c(F)cccc4Cl)c3C(=O)OC)c2C(F)(F)F)ncn1` [Example I-116, methyl 3-(2-chloro-6-fluorophenyl)-5-(1-(6-ethoxypyrimidin-4-yl)-5-(trifluoromethyl)-1H-pyrazol-4-yl)isoxazole-4-carboxylate], the IC50 in assay [1] (setting [2]) fell in the range of 1 to 10 µM.
On the same count and under the same terms, the value for `COC(=O)c1c(-c2c(F)cccc2Cl)noc1-c1cnn(-c2cccc(Cl)c2Cl)c1C(F)(F)F` [Example I-4, methyl 3-(2-chloro-6-fluorophenyl)-5-(1-(2,3-dichlorophenyl)-5-(trifluoromethyl)-1H-pyrazol-4-yl)isoxazole-4-carboxylate] was 1 to 10 µM.
As for `COc1ccccc1-n1ncc(-c2onc(-c3c(F)cccc3Cl)c2Br)c1C(F)(F)F` [IB-23, 4-bromo-3-(2-chloro-6-fluorophenyl)-5-(1-(2-methoxyphenyl)-5-(trifluoromethyl)-1H-pyrazol-4-yl)isoxazole], the IC50 with IFN-γ (setting [3]) is 1 to 10 µM.
For `CCOC(=O)c1c(-c2onc(-c3c(F)cccc3Cl)c2C(=O)OC)cnn1-c1ccccc1OC` [Example I-40], in the assay on IFN-γ (setting [3]), the IC50 was in the range of 1 to 10 µM.
Take `COC(=O)c1c(-c2c(F)cccc2Cl)noc1-c1cnn(CCO)c1C(F)(F)F` [Example I-83, methyl 3-(2-chloro-6-fluorophenyl)-5-(1-(2-hydroxyethyl)-5-(trifluoromethyl)-1H-pyrazol-4-yl)isoxazole-4-carboxylate]: in the assay with IFN-γ (setting [3]), the IC50 was in the range of 1 to 10 µM.
Take `COC(=O)c1c(-c2c(F)cccc2Cl)noc1-c1cnn(-c2ccc(Cl)cc2Cl)c1C(F)(F)F` [Example I-7, methyl 3-(2-chloro-6-fluorophenyl)-5-(1-(2,4-dichlorophenyl)-5-(trifluoromethyl)-1H-pyrazol-4-yl)isoxazole-4-carboxylate]: in assay [1] (setting [2]), the IC50 is 1 to 10 µM.
For the molecule `COC(=O)c1c(-c2c(F)cccc2Cl)noc1-c1cnn(-c2cccc(F)c2)c1C(F)(F)C(F)F` [Example I-64, methyl 3-(2-chloro-6-fluorophenyl)-5-(1-(3-fluorophenyl)-5-(1,1,2,2-tetrafluoroethyl)-1H-pyrazol-4-yl)isoxazole-4-carboxylate], in assay [1] (setting [2]), the IC50 was 1 to 10 µM.
As to `Fc1ccc(-n2ncc(-c3cc(-c4c(F)cccc4Cl)no3)c2C(F)(F)F)cc1` [Example I-25, 3-(2-chloro-6-fluorophenyl)-5-(1-(4-fluorophenyl)-5-(trifluoromethyl)-1H-pyrazol-4-yl)isoxazole], the IC50 with IFN-γ (setting [3]) fell in the range of 1 to 10 µM.
Turning to `COC(=O)c1c(-c2c(F)cccc2Cl)noc1-c1cnn(-c2cccc(C(F)(F)F)c2)c1C(F)(F)F` [Example I-82, methyl 3-(2-chloro-6-fluorophenyl)-5-(5-(trifluoromethyl)-1-(3-(trifluoromethyl)phenyl)-1H-pyrazol-4-yl)isoxazole-4-carboxylate], the IC50 in assay [1] (setting [2]) fell in the range of 1 to 10 µM.
As for `COC(=O)c1c(-c2c(F)cccc2Cl)noc1-c1cnn(-c2ncc(C(F)(F)F)cc2Cl)c1C(F)(F)F` [Example I-87], the IC50 in assay [1] (setting [2]) lay in the range of 1 to 10 µM.
Turning to `CC(C)Cn1ncc(-c2onc(-c3c(F)cccc3Cl)c2C(=O)O)c1C(F)(F)F` [IB-19, 3-(2-chloro-6-fluorophenyl)-5-(1-isobutyl-5-(trifluoromethyl)-1H-pyrazol-4-yl)isoxazole-4-carboxylic acid], the IC50 in the assay on IFN-γ (setting [3]) lay within 1 to 10 µM.
Consider `COC(=O)c1c(-c2ccccc2)noc1-c1cnn(-c2ccc(OC(F)(F)F)cc2)c1C(F)(F)F` [Example I-74, methyl 3-phenyl-5-(1-(4-(trifluoromethoxy)phenyl)-5-(trifluoromethyl)-1H-pyrazol-4-yl)isoxazole-4-carboxylate], for which the IC50 in assay [1] (setting [2]) was 1 to 10 µM.
As to `COc1ccc(-c2noc(-c3cnn(-c4cccc(F)c4)c3C(F)(F)F)c2C(=O)O)cc1` [Example I-108, 5-(1-(3-fluorophenyl)-5-(trifluoromethyl)-1H-pyrazol-4-yl)-3-(4-methoxyphenyl)isoxazole-4-carboxylic acid], the IC50 in assay [1] (setting [2]) fell in the range of 1 to 10 µM.
For the molecule `CC(C)Cn1ncc(-c2onc(-c3c(F)cccc3Cl)c2-c2nnn[nH]2)c1C(F)(F)F` [Example 1, 3-(2-chloro-6-fluorophenyl)-5-(1-isobutyl-5-(trifluoromethyl)-1H-pyrazol-4-yl)-4-(1H-tetrazol-5-yl)isoxazole], the IC50 in assay [1] (human PBMC, 2 μg/ml PHA, read-out: D: IC50 (Tcell proliferation)) lay within 1 to 10 µM.
Take `CC(=O)NNC(=O)c1c(-c2c(F)cccc2Cl)noc1-c1cnn(-c2ccccc2F)c1C(F)(F)F` [Example I-142, N′-acetyl-3-(2-chloro-6-fluorophenyl)-5-(1-(2-fluorophenyl)-5-(trifluoromethyl)-1H-pyrazol-4-yl)isoxazole-4-carbohydrazide]: the IC50 in the assay on IFN-γ (setting [3]) was 1 to 10 µM.
Regarding `CNC(=O)c1c(-c2ccc(Cl)cc2)noc1-c1cnn(-c2cccc(F)c2)c1C(F)(F)F` [Example I-75, 3-(4-chlorophenyl)-5-(1-(3-fluorophenyl)-5-(trifluoromethyl)-1H-pyrazol-4-yl)-N-methylisoxazole-4-carboxamide], the IC50 in the assay with IFN-γ (setting [3]) was 1 to 10 µM.
For the molecule `CCOC(=O)c1c(-c2onc(-c3c(F)cccc3Cl)c2C(=O)OC)cnn1-c1ccc(OC(F)(F)F)cc1` [Example I-45, methyl 3-(2-chloro-6-fluoro-phenyl)-5-(5-(ethoxycarbonyl)-1-(4-(trifluoromethoxy)phenyl)1H-pyrazol-4-yl)isoxazole-4-carboxylate], the IC50 in the assay on IFN-γ (setting [3]) fell in the range of 1 to 10 µM.
With `CCOC(=O)c1c(-c2onc(-c3c(F)cccc3Cl)c2C(=O)OC)cnn1-c1c(F)c(F)cc(F)c1F` [Example I-38, methyl 3-(2-chloro-6-fluorophenyl)-5-(5(ethoxycarbonyl)-1-(2,3,5,6-tetrafluorophenyl)-1H-pyrazol-4-yl)isoxazole-4-carboxylate], the IC50 in the assay on IFN-γ (setting [3]) was in the range of 1 to 10 µM.
Regarding `O=C(O)c1c(-c2cccc(F)c2)noc1-c1cnn(-c2cccc(F)c2)c1C(F)(F)F` [Example I-114, 3-(3-fluorophenyl)-5-(1-(3-fluorophenyl)-5-(trifluoromethyl)-1H-pyrazol-4-yl)isoxazole-4-carboxylic acid], in the assay on IFN-γ (setting [3]), the IC50 lay in the range of 1 to 10 µM.
In the case of `COC(=O)c1c(-c2c(F)cccc2Cl)noc1-c1cnn(-c2ccccc2Br)c1C(F)(F)F` [Example I-80, methyl 5-(1-(2-bromophenyl)-5-(trifluoromethyl)-1H-pyrazol-4-yl)-3-(2-chloro-6-fluorophenyl)isoxazole-4-carboxylate], the IC50 in the assay with IFN-γ (setting [3]) lay within 1 to 10 µM.
For `CCOC(=O)c1c(-c2onc(-c3c(F)cccc3Cl)c2C(=O)OC)cnn1-c1ccsc1C(=O)OC` [Example I-15, methyl 3-(2-chloro-6-fluorophenyl)-5-(5-(ethoxycarbonyl)-1-(2-(methoxycarbonyl)thiophen-3-yl)-1H-pyrazol-4-yl)isoxazole-4-carboxylate], in the assay with IFN-γ (setting [3]), the IC50 was in the range of 1 to 10 µM.
As for `COC(=O)c1c(-c2c(F)cccc2Cl)noc1-c1cnn(Cc2ccccn2)c1C(F)(F)F` [Example I-101, methyl 3-(2-chloro-6-fluorophenyl)-5-(1-(pyridin-2-ylmethyl)-5-(trifluoromethyl)-1H-pyrazol-4-yl)isoxazole-4-carboxylate], the IC50 with IFN-γ (setting [3]) was in the range of 1 to 10 µM.
Same read-out and setting: as for `Fc1ccccc1-n1ncc(-c2onc(-c3c(F)cccc3Cl)c2C(=S)N2CCOCC2)c1C(F)(F)F` [Example I-123, (3-(2-chloro-6-fluorophenyl)-5-(1-(2-fluorophenyl)-5-(trifluoromethyl)-1H-pyrazol-4-yl)isoxazol-4-yl)(morpholino)meth-anethione], the figure is 1 to 10 µM; as for `COC(=O)c1c(-c2c(F)cccc2Cl)noc1-c1cnn(CCN2CCCCC2)c1C(F)(F)F` [Example I-104, methyl 3-(2-chloro-6-fluorophenyl)-5-(1-(2-(piperidin-1-yl)ethyl)-5-(trifluoromethyl)-1H-pyrazol-4-yl)isoxazole-4-carboxylate], 1 to 10 µM.
Turning to `CCOC(=O)c1c(-c2ccc(Cl)c(Cl)c2)noc1-c1cnn(-c2cccc(F)c2)c1C(F)(F)F` [Example I-99, ethyl 3-(3,4-dichlorophenyl)-5-(1-(3-fluorophenyl)-5-(trifluoromethyl)-1H-pyrazol-4-yl)isoxazole-4-carboxylate], the IC50 with IFN-γ (setting [3]) lay within 1 to 10 µM.
Consider `Fc1cccc(Cl)c1-c1noc(-c2cnn(-c3ccccc3Cl)c2C(F)(F)F)c1-c1nnco1` [Example B-14, 2-(3-(2-chloro-6-fluorophenyl)-5-(1-(2-chlorophenyl)-5-(trifluoromethyl)-1H-pyrazol-4-yl)isoxazol-4-yl)-1,3,4-oxadiazole], for which the IC50 in the assay with IFN-γ (human PBMC, 2 μg/ml PHA, read-out: C: IC50 (IFNγ)) was 1 to 10 µM.
Turning to `COC(=O)c1c(-c2c(F)cccc2Cl)noc1-c1cnn(-c2ccc(OC)cc2)c1C(F)(F)F` [Example I-79], the IC50 with IFN-γ (setting [3]) was in the range of 1 to 10 µM.
